Experimental data reported in PubChem BioAssay (NCI).
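Method: 48-hour compound exposure of cells in 96-well plates, five concentrations, linear interpolation of endpoints. TGI: concentration producing complete growth inhibition.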

How the values were obtained:
Experiment in all cases: DTP human tumour cell line panel, 48 h
786-0 renal = test system: 786-0 renal
A498 renal = test system: A498 renal
A549 NSCLC = test system: A549 NSCLC
ACHN renal = test system: ACHN renal
CAKI-1 renal = test system: CAKI-1 renal
CCRF-CEM leukemia = test system: CCRF-CEM leukemia
COLO 205 colon = test system: COLO 205 colon
DLD-1 colon = test system: DLD-1 colon
DMS 114 small cell lung = test system: DMS 114 small cell lung
DMS 273 small cell lung = test system: DMS 273 small cell lung
EKVX NSCLC = test system: EKVX NSCLC
HCC-2998 colon = test system: HCC-2998 colon
HCT-116 colon = test system: HCT-116 colon
HCT-15 colon = test system: HCT-15 colon
HL-60(TB) leukemia = test system: HL-60(TB) leukemia
HOP-62 NSCLC = test system: HOP-62 NSCLC
HOP-92 NSCLC = test system: HOP-92 NSCLC
HT29 colon = test system: HT29 colon
IGROV1 ovarian = test system: IGROV1 ovarian
K-562 leukemia = test system: K-562 leukemia
KM12 colon = test system: KM12 colon
KM20L2 colon = test system: KM20L2 colon
LOX IMVI melanoma = test system: LOX IMVI melanoma
LXFL 529 NSCLC = test system: LXFL 529 NSCLC
M14 melanoma = test system: M14 melanoma
M19-MEL melanoma = test system: M19-MEL melanoma
MALME-3M melanoma = test system: MALME-3M melanoma
MOLT-4 leukemia = test system: MOLT-4 leukemia
NCI-H226 lung = test system: NCI-H226 lung
NCI-H23 lung = test system: NCI-H23 lung
NCI-H460 lung = test system: NCI-H460 lung
NCI-H522 lung = test system: NCI-H522 lung
OVCAR-3 ovarian = test system: OVCAR-3 ovarian
OVCAR-4 ovarian = test system: OVCAR-4 ovarian
OVCAR-5 ovarian = test system: OVCAR-5 ovarian
OVCAR-8 ovarian = test system: OVCAR-8 ovarian
RPMI-8226 leukemia = test system: RPMI-8226 leukemia
RXF 393 renal = test system: RXF 393 renal
SF-295 CNS = test system: SF-295 CNS
SF-539 CNS = test system: SF-539 CNS
SK-MEL-2 melanoma = test system: SK-MEL-2 melanoma
SK-MEL-28 melanoma = test system: SK-MEL-28 melanoma
SK-MEL-5 melanoma = test system: SK-MEL-5 melanoma
SK-OV-3 ovarian = test system: SK-OV-3 ovarian
SN12C renal = test system: SN12C renal
SNB-19 CNS = test system: SNB-19 CNS
SNB-75 CNS = test system: SNB-75 CNS
SNB-78 CNS = test system: SNB-78 CNS
SR leukemia = test system: SR leukemia
SW-620 colon = test system: SW-620 colon
TK-10 renal = test system: TK-10 renal
U251 CNS = test system: U251 CNS
UACC-257 melanoma = test system: UACC-257 melanoma
UACC-62 melanoma = test system: UACC-62 melanoma
UO-31 renal = test system: UO-31 renal
XF 498 CNS = test system: XF 498 CNS
BT-549 breast = test system: BT-549 breast
DU-145 prostate = test system: DU-145 prostate
HS 578T breast = test system: HS 578T breast
MCF7 breast = test system: MCF7 breast
MDA-MB-231 breast = test system: MDA-MB-231 breast
MDA-MB-435 = test system: MDA-MB-435
MDA-N = test system: MDA-N
NCI/ADR-RES ovarian = test system: NCI/ADR-RES ovarian
PC-3 prostate = test system: PC-3 prostate
SF-268 CNS = test system: SF-268 CNS
T-47D breast = test system: T-47D breast

Measured: TGI

O=C(/C(=C/c1ccccc1)c1ccccc1)N1c2ccccc2CC1c1c[nH]c2ccccc12 (configuration not stated)
89.6 µM: OVCAR-3 ovarian
8.95 µM: XF 498 CNS
49.7 µM: MOLT-4 leukemia
24.7 µM: COLO 205 colon
81.9 µM: SK-MEL-2 melanoma
not listed: BT-549 breast | DU-145 prostate | HS 578T breast | MCF7 breast | MDA-MB-231 breast | MDA-MB-435 | MDA-N | NCI/ADR-RES ovarian | PC-3 prostate | SF-268 CNS | T-47D breast
> 100 µM: all other assays above

CSC1=C(C(=O)Nc2ccccc2)C(N)=NC1=O
not listed: ACHN renal | DLD-1 colon | DMS 114 small cell lung | DMS 273 small cell lung | HOP-62 NSCLC | HOP-92 NSCLC | IGROV1 ovarian | KM20L2 colon | LXFL 529 NSCLC | M14 melanoma | M19-MEL melanoma | OVCAR-3 ovarian | OVCAR-5 ovarian | SF-295 CNS | SNB-78 CNS | XF 498 CNS
> 100 µM: all other assays above
